Earlier results in patent publication US20120136048A1, “TOPICAL, PERIOCULAR, OR INTRAOCULAR USE OF TOCOTRIENOLS FOR THE TREATMENT OF OPHTHALMIC DISEASES” (priority 2009, published 2012).

Conditions: rat ocular tissues, every tissue to which it was administered

| concentration in ocular tissues after topical ophthalmic administration | Structure (SMILES) |
| --- | --- |
| increased markedly | CC(C)=CCC/C(C)=C/CC/C(C)=C/CC[C@]1(C)CCc2c(C)c(O)c(C)c(C)c2O1 [alpha-tocotrienol, Alpha-Tocotrienol] |
| no significant increase | Cc1c(C)c2c(c(C)c1O)CC[C@@](C)(CCC[C@H](C)CCC[C@H](C)CCCC(C)C)O2 [alpha-tocopherol] |
